Results from PubChem BioAssay AID456 (Sanford-Burnham Center for Chemical Genomics, 2006).

tested on: HUVEC TNFa-induced VCAM-1 surface expression, immunofluorescence imaging; test: inhibitors of TNFa-induced VCAM-1 surface display, imaging, high-content imaging, pooled HUVEC, TNFa stimulus (AID 456)

| SMILES | IC50 [µM] |
| --- | --- |
| CC(C)C[C@H]1C(=O)N2CCC[C@H]2[C@]2(O)O[C@](NC(=O)[C@@H]3C=C4c5cccc6[nH]c(Br)c(c56)CC4N(C)C3)(C(C)C)C(=O)N12 (some centres not stated) | 11 |
| Cc1oc(-c2cccc(Cl)c2)nc1CN1CCC(C(=O)N2CCN(c3ccccc3F)CC2)CC1 | 8.7 |
| CCOC(=O)c1ccc(N=c2sc(C(=O)OC)cc(=O)n2Cc2ccco2)cc1 | 4.92 |
| CN(C)CCCN1c2ccccc2Sc2ccc(Cl)cc21 | 8.47 |
| CS(=O)(=O)c1ncc(Cl)c(C(=O)Nc2ccc(N3CCOCC3)cc2)n1 | 6.5 |
| C/C=C(\CS(=O)(=O)c1ccccc1)S(=O)(=O)c1ccccc1 | 6.39 |
| C=CS(=O)(=O)c1ccc(Oc2ccc(S(=O)(=O)C=C)cc2)cc1 | 1.2 |
| S=C(NCC1CCCO1)n1nnc2ccccc21 (configuration not stated) | 8.83 |
| CCN1C(=O)c2cccc3c(NC(=O)c4ccc(S(=O)(=O)N(C)C)cc4)ccc1c23 | 12.1 |
| CN(C)CCCN1c2ccccc2CCc2ccc(Cl)cc21 | 10.2 |
| N#Cc1cc2sc3nnc(-c4ccncc4)n3c2cc1C#N | 13.7 |
| Oc1ccc(Nc2nc(-c3ccc(O)cc3)cs2)cc1 | 11.6 |
| O=C1CCn2nc(-c3ccc(Cl)cc3)cc2N1 | 12.3 |
| O=S1(=O)C=C(Sc2nc3ccccc3s2)c2ccccc21 | 2.35 |
| O=C(Cn1nc(-c2ccc(Cl)cc2)ccc1=O)NCCCN1CCN(Cc2ccccc2)CC1 | 16.9 |
| Clc1ccc(OCc2nnc(SCCN3CCCCC3)n2Cc2ccco2)cc1 | 13.9 |
| Cc1nc2sccn2c(=O)c1CCN1CCC(=C(c2ccccc2)c2ccc(F)cc2)CC1 | 11.5 |
